The source of these data is patent US5232684A, “Labelled resiniferatoxin, compositions thereof, and methods for using the same” (priority 1990, dated 1993).

Where two headings read alike, the source gives them in different places.

One test deals with Sprague-Dawley rats. In words: Induction of ear edema in Sprague-Dawley rats. The test is classed as in vivo, rat. The settings on record: 2×10^-7 g/ear. The text has this:
(§1) [^3 H]RTX (37 Ci/mmol) is synthesized by esterification of resiniferonol 9,13,14-orthophenylacetate (Chemicals for Cancer Research, Inc., Chaska, MN) at the C20 position with [^3 H]homovanillic acid (Chemical Synthesis and Analysis Laboratory, NCI-FCRF, Frederick, MD). The labelled compound is purified on HPLC and cochromatographed with authentic RTX (Chemicals for Cancer Research, Inc., Chaska, MN). The biological activity of [^3 H]RTX is confirmed in 2 assays: induction of hypothermia in CD-1 mice (10^-5 g/kg s.c.) and induction of ear edema in Sprague-Dawley rats (2×10^-7 g/ear).

The target of test [1] is T1, capsaicin receptor (rat DRG) (Rattus norvegicus, UniProt O35433).
T1 construct: homotetramer
In words: RTX binding in DRG preparations after in vivo RTX treatment.

Another test deals with CD-1 mice. As to the kind of experiment: Induction of hypothermia in CD-1 mice. Type of test: in vivo, mouse. The settings on record: 10^-5 g/kg s.c.
Source text: as §1

For test [2], the system named is capsaicin receptor (sheep DRG). As to the kind of experiment: [^3H]RTX binding to sheep DRG membranes. The settings on record: DRG from sheep.
Test [3] has as its target T2, capsaicin receptor (rat DRG membranes) (Rattus norvegicus, UniProt O35433).
T2 construct: membrane preparations from dorsal root ganglia (DRG) of female Sprague-Dawley rats; from tissue; host or cells: dorsal root ganglia of female Sprague-Dawley rats
As to the kind of experiment: biochemical. The test is classed as binding. How it is done:
(§2) Membrane preparations are obtained from the DRG and Gasser ganglia of female Sprague-Dawley rats (250-300 g); animals are sacrificed by decapitation under ether anesthesia, the ganglia removed and collected into ice-cold disrupting buffer (5 mM KCl, 5.8 mM NaCl, 2 mM MgCl2, 12 mM glucose, 137 mM sucrose, 10 mM HEPES, 5 mM DTT, 2 mM EGTA, pH 7.4). After homogenization with the aid of a Polytron tissue homogenizer, samples are filtered over surgical gauze and then washed twice with the same buffer and stored at -70° C. Particulate fractions are obtained from other rat neural tissues (cerebellum, spinal cord, preoptic region, striatum, substantia nigra) and from DRG of pigs (Mt. Airy Locker Co., Mt. Airy, MD), sheep, cows (kindly provided by Dr. Solomon, USDA, Beltsville, MD), and chickens (Truslow Farms, Chesterton, MD) by a similar procedure.
(§3) The binding assays are carried out in a volume of 250 ul, containing assay buffer (same as the disrupting buffer but omitting DTT and EGTA and including 0.75 mM CaCl2), 26-30 ug of membrane protein and 0.25 mg/ml bovine serum albumin. […] Tubes are kept on ice while the additions are made. The assay mixture is incubated for 10 min at 37° C.; it is then cooled on ice. 150 ul of the mixture is pipetted onto Whatman GF/C or GF/F glass fiber filters presoaked with 10 mg/ml bovine serum albumin in 20 mM Tris-Cl (pH 7.4) and filtered immediately. An aliquot of 50 ul of the mixture is removed to determine total radioactivity. The filters are washed with 100 ml of ice-cold 20 mM Tris-Cl, pH 7 4, containing 0.1 mg/ml bovine serum albumin, and the bound radioactivity is determined by scintillation counting. Non-specific binding is determined in the presence of 100-1000 nM non-radioactive RTX.
(§4) Binding data from saturation experiments using increasing concentrations of hot ligand are analyzed using the collection of computer programs described by McPherson (McPherson, G.A., Analysis of radioligand binding experiments: a collection of computer programs for the IBM PC, J.Pharmacol.Methods, 14 (1985) 213-228).
(§5) Scatchard and Hill transformations are performed by the Equilibrium Binding Data Analysis program referred to as EBDA. Data are further analyzed by the curvilinear regression program LIGAND (Munson, R.J. and Rodbard, D., LIGAND: a versatile computerized approach for characterization of ligand-binding systems, Anal.Biochem, 107 (1980) 220-239).
RTX binding is also analyzed in the presence of a fixed, low (60 pM or 300 pM) concentration of [^3 H]RTX and increasing concentrations of non-radioactive RTX or other ligand. […] The Ki value for RTX is calculated from the relationship Ki =ID50 -L; the Ki values for other ligands are calculated from the general form of the equation (Cheng, Y.C. and Prusoff, W.H., Relation between the inhibition constant (Ki) and the concentration of inhibitor which causes 50 per cent inhibition (I50) of an enzymatic reaction, Biochem. Pharmacol., 22 (1973) 3099-3108) Ki =IC50 /(1+L/Kd) where L=concentration of labelled ligand and Kd =dissociation constant of radioactive ligand as determined in the saturation experiments using variable concentrations of hot ligand. Comparison of the quality of fit using single and multiple site competition models is performed by the LIGAND program.
[^3 H]RTX binding is examined using membrane preparations from dorsal root ganglia (DRG) of female Sprague-Dawley rats.

For test [4], the target named is T3, capsaicin receptor (pig DRG membranes) (Sus scrofa, UniProt F1RLJ0).
T3 construct: tissue Mt; Airy Locker Co., Mt; Airy, MD; host or cells: pig dorsal root ganglia
In words: biochemical. Type of test: binding. As for the experimental part:
as §2
Subcellular fractions are prepared by a modification of the method of Bastiaensen et al. (Bastiaensen, E., Miserez, B. and De Potter, W., Subcellular fractionation of bovine ganglion stellatum: co-storage of noradrenaline, Met-enkephalin and neuropeptide Y in large `dense-cored` vesicles, Brain Res., 442 (1988) 124-130. ) Briefly: DRG are dissected free from capsule, cut into small pieces with scissors, and then homogenized with a teflon pestle (20 strokes) in ice-cold 0.25 M sucrose/ 20 mM Tris-Cl (pH 7.4) buffer. The homogenate is filtered over surgical gauze; it is then centrifuged for 10 min at 2000 gmax, giving a pellet P1, and again at 10 000 gmax for 15 min giving a pellet P2. The P1 and P2 pellets are saved as nuclear and mitochondrial fractions for binding studies. The resulting supernatant is further centrifuged at 50 000 gmax for 60 min, and then the pellet is harvested as the plasma-membrane enriched microsomal fraction.
as §3, §4, §5
RTX binding is also analyzed in the presence of a fixed, low (60 pM or 300 pM) concentration of [^3 H]RTX and increasing concentrations of non-radioactive RTX or other ligand.

The subject of test [5] is rat brain preoptic region. In words: [^3H]RTX binding to rat brain preoptic region.

One may read the Hill coefficient as the slope factor of the fitted curve. As a reminder, the Kd is the concentration at which binding is half-saturated.

T2 sequence (O35433 whole entry): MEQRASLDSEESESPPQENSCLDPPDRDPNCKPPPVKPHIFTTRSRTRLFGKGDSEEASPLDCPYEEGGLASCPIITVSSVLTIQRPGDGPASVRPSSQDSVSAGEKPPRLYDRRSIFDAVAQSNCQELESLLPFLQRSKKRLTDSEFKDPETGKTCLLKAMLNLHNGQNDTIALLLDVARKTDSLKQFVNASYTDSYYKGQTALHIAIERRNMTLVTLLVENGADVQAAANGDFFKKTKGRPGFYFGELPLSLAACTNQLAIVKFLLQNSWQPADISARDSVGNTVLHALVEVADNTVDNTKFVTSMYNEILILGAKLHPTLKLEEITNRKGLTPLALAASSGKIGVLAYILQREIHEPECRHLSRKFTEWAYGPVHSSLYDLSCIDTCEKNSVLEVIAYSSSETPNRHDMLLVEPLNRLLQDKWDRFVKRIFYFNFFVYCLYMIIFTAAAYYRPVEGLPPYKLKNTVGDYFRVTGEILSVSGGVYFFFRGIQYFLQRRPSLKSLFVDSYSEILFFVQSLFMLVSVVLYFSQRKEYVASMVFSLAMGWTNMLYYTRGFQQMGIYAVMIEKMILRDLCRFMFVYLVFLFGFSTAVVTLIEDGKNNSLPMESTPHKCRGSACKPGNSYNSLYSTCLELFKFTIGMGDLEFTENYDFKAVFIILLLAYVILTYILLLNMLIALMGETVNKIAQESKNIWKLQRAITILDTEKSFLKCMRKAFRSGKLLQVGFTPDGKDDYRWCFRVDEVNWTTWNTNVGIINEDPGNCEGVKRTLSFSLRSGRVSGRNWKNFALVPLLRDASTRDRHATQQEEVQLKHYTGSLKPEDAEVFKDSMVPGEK
T3 sequence (F1RLJ0 1-841): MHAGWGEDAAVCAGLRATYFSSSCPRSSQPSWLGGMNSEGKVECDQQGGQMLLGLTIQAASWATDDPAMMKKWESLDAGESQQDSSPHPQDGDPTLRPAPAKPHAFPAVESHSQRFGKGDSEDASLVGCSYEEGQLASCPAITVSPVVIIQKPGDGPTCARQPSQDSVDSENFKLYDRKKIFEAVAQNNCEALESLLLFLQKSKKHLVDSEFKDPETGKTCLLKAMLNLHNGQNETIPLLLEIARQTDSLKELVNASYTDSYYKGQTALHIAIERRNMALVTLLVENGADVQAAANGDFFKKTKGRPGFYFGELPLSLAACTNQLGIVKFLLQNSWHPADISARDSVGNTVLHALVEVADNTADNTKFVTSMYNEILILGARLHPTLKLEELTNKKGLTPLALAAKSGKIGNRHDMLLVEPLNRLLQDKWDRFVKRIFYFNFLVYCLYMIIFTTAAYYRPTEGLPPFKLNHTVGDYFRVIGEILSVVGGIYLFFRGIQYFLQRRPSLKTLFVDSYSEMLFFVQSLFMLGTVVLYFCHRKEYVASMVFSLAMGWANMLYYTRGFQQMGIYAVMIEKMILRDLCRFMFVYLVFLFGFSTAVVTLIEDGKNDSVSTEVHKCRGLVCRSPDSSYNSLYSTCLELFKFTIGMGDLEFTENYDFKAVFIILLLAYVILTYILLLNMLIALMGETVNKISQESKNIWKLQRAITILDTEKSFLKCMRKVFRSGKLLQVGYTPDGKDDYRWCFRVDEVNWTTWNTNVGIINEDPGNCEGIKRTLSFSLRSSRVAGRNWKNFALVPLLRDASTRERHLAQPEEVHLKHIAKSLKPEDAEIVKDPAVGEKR
T1 sequence (O35433 whole entry): as the sequence (O35433 whole entry) above

As for `C=C(C)[C@]12C[C@@H](C)[C@@]34O[C@](Cc5ccccc5)(O[C@@H]1[C@@H]3C=C(COC(=O)Cc1ccc(O)c(OC)c1)C[C@]1(O)C(=O)C(C)=C[C@@H]41)O2` [[^3 H]RTX, [^3 H]resiniferatoxin], the “biological activity: induction of ear edema” value in the test with Sprague-Dawley rats is “confirmed”. In test [1], the “[^3H]RTX binding sites in neonatally treated animals” value is “very significant loss”. In addition, in the test on CD-1 mice, the “biological activity: induction of hypothermia” value is on record as “confirmed”. The “specific binding” value in test [2] and in test [4] (DRG from pigs) was “Specific binding is observed” throughout. The “Bmax (summary)” value in test [3] (rat DRG) is 160 fmol/mg; in test [4] (pig DRG), 730 fmol/mg. The “specific binding to the DRG membranes” value in test [3] (rat DRG) is given as “specific, saturable binding”. The Hill coefficient in test [3] (rat DRG membranes) was determined as 0.96; in test [4] (pig DRG, partially purified membrane preparations), 0.9. Further, the “specific binding of the total at the Kd” value in test [3] (rat DRG membranes, at the Kd) is given as “approximately 50%”. The “Bmax (Scatchard analysis)” value in test [3] (rat DRG membranes, 3 separate determinations) is reported as 150 fmol/mg protein; in test [4] (pig DRG, partially purified membrane preparations, 2 separate determinations), 700 fmol/mg protein. For the same compound, the Kd in test [3] (rat DRG membranes, data cumulated from 3 separate determinations, read-out: Kd (Scatchard analysis)) is 300 pM; in test [3] (rat DRG membranes, one site model, final parameter estimate, read-out: Kd (curvilinear analysis, LIGAND)), 270 pM; in test [3] (rat DRG, read-out: Kd (summary)) it was 270 pM; in test [4] (pig DRG, partially purified membrane preparations, 2 separate determinations, LIGAND, read-out: Kd (Scatchard analysis)) it was 1700 pM. The “Bmax (curvilinear analysis, LIGAND)” value in test [3] (rat DRG membranes, final parameter estimate) was 160 fmol/mg protein. For the same compound, in test [4] (pig DRG membranes heated to 55° C. for 10-20 min, 2 experiments), the “specific [^3H]RTX binding after heating of membranes” value is on record as “completely inactivates”. The “time at which specific binding is maximal” value in test [4] (pig DRG membranes, 37° C.) stood at 10 min. For the same compound, the “Bmax (competition)” value in test [4] (pig DRG, mean±SEM, 4 determinations) was 730±80 fmol/ mg protein. Also, the “detection of [^3H]RTX binding” value in test [5] is recorded as “very difficult”.
